PMC9138389, “The Tarantula Toxin ω-Avsp1a Specifically Inhibits Human CaV3.1 and CaV3.3 via the Extracellular S3-S4 Loop of the Domain 1 Voltage-Sensor” (Biomedicines, 2022)
Where a SMILES comes first, the peptide text is derived from it. Bridges are numbered along the chain shown (N, C = ends).

Tests used:
patients = conditions: used clinically as anti-epileptic drugs; cited from earlier work
From the text: (§1) It is well documented that the three CaV3 subtypes participate differentially in a variety of physiological and pathological conditions. Selective pharmacological inhibition is therefore important for dissecting the pathophysiological functions of CaV3 channel subtypes and for the development of therapeutically useful subtype-selective inhibitors.

CaV3 = conditions: cited from earlier work
From the text: as §1

CaV3.3 = biological target: T1, CaV3.3 (Homo sapiens, UniProt Q9P0X4); test: Whole-cell voltage-clamp of CaV3.3 expressed in HEK-293 cells; format: cell-based
T1 construct: expressed in transfected cells; host or cells: HEK-293
T1 sequence (Q9P0X4 whole entry): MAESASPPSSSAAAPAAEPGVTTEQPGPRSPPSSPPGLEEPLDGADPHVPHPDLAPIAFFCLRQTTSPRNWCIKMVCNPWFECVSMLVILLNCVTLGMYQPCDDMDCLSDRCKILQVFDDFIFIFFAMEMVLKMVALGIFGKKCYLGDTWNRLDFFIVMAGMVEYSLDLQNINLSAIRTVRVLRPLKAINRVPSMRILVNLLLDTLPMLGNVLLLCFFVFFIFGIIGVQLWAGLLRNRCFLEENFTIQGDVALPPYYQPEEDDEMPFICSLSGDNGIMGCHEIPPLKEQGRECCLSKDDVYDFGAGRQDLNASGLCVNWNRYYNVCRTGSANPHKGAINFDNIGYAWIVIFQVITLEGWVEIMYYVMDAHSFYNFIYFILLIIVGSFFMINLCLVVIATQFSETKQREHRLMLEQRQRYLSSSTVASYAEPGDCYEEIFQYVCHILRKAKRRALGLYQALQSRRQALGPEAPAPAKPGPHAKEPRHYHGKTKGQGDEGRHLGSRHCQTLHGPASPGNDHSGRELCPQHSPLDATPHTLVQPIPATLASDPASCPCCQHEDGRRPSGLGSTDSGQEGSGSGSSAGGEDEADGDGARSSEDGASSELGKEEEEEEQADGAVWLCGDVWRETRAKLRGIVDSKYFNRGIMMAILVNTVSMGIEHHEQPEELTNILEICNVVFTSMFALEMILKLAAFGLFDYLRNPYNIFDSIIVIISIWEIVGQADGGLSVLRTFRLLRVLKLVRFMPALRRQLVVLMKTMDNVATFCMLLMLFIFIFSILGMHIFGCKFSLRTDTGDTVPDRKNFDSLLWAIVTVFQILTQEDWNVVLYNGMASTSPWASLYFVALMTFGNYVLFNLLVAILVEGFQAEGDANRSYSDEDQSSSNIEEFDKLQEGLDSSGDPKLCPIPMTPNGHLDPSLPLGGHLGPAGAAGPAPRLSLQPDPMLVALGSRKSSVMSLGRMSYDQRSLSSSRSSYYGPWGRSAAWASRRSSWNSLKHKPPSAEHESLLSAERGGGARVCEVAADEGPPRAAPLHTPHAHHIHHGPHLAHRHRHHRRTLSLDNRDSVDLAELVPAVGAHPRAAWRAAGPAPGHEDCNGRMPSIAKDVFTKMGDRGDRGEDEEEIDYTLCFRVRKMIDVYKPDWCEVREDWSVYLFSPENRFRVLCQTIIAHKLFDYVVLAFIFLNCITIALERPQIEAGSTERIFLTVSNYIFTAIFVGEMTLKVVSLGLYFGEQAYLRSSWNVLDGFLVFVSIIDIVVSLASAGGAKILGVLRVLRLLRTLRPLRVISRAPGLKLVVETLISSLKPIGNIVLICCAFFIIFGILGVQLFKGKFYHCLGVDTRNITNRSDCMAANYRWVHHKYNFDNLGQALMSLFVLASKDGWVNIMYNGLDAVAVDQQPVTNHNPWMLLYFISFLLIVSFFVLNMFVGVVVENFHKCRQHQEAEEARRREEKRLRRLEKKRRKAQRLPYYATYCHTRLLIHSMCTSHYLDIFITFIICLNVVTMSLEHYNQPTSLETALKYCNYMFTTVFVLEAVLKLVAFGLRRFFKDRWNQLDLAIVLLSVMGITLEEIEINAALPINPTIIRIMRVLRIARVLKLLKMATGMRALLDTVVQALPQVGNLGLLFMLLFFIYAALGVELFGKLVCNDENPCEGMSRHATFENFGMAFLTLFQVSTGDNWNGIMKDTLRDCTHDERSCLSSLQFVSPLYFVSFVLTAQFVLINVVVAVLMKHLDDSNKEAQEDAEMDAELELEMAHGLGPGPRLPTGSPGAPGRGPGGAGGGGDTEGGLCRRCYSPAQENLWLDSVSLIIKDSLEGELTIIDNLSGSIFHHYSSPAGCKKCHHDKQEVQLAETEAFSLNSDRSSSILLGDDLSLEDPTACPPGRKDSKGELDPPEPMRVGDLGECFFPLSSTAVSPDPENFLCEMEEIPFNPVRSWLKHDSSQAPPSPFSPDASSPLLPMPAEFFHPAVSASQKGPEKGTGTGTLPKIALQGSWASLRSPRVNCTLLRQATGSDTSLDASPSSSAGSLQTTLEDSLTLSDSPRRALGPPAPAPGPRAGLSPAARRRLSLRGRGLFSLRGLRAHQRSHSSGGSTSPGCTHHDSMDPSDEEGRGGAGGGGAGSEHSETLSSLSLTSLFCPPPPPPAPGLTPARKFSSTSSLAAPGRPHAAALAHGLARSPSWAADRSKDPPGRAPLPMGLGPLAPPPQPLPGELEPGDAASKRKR
Method: (§2) Human embryonic kidney (HEK) 293 cells were grown in Dulbecco’s modified Eagle’s medium (DMEM) containing 5% fetal bovine serum and penicillin/streptomycin at 37 °C in a 5% CO2 incubator. Cells were transiently transfected with 3 μg plasmid DNA using the calcium-phosphate method. Plasmids of Cav3.1, Cav3.2 or Cav3.3 were separately transfected into three individual plates of HEK-293 cells. After transfection, cells were incubated at 37 °C for 48 h prior to whole-cell voltage-clamp recordings.
(§3) Patch pipettes with a tip resistance of 2.8~3.5 MΩ were pulled from borosilicate glass capillary tubes (Warner Instruments, Holliston, MA, USA) using a P-97 Flaming-Brown type micropipette puller (Sutter Instrument, Novato, CA, USA). Ionic currents were recorded using an Axon Multiclamp 700B microelectrode amplifier (Molecular Devices, San Jose, CA, USA). The sampling frequency for acquisition was 50 kHz and data were low-pass filtered at 2 kHz. Voltage and current commands and digitisation of membrane voltages and currents were controlled using a Digidata 1440A interfaced with Clampex 10.4 (Molecular Devices, San Jose, CA, USA). Data were analysed using pCLAMP10.4 software (Molecular Devices, San Jose, CA, USA).
(§4) To measure CaV3 currents, cells were incubated with the following bath solution (in mM): 145 TEA-Cl, 5 CaCl2, 3 CsCl, 1 MgCl2, 5 glucose, and 10 HEPES, adjusted to pH 7.4 with TEA-OH, osmolarity ~300 mOsm. The pipette solution was as follows (in mM): 130 CsCl, 20 HEPES, 10 EGTA, 5 MgCl2, 3 Mg-ATP, and 0.3 Tris-GTP, adjusted to pH 7.3 with CsOH, osmolarity ~310 mOsm. All recordings were performed at room temperature (21–24 °C). For Cav3.1- or Cav3.2-transfected cells, their membrane potentials were initially held at −90 mV for 20 ms and then depolarized to −30 mV for 150 ms. […] The peak values of Cav3 currents were recorded before and after addition of venom fractions or synthetic peptide. […] The inhibition was calculated by dividing the toxin-reduced peak amplitudes by the peak amplitudes before additions of the toxin.

[1] = Solubility limit in electrophysiology; format: physicochemical; conditions: synthetic ω-Avsp1a; working concentration could not be increased above 25 μM
CaV3.1 = biological target: T2, CaV3.1 (Homo sapiens, UniProt O43497); test: Whole-cell voltage-clamp of CaV3.1 expressed in HEK-293 cells; format: cell-based
T2 construct: expressed in transfected cells; host or cells: HEK-293
Method: as §2, §3, §4

CaV3.2 = biological target: T3, CaV3.2 (Homo sapiens, UniProt O95180); test: Whole-cell voltage-clamp of CaV3.2 expressed in HEK-293 cells; format: cell-based
T3 construct: expressed in transfected cells; host or cells: HEK-293
T3 sequence (O95180 whole entry): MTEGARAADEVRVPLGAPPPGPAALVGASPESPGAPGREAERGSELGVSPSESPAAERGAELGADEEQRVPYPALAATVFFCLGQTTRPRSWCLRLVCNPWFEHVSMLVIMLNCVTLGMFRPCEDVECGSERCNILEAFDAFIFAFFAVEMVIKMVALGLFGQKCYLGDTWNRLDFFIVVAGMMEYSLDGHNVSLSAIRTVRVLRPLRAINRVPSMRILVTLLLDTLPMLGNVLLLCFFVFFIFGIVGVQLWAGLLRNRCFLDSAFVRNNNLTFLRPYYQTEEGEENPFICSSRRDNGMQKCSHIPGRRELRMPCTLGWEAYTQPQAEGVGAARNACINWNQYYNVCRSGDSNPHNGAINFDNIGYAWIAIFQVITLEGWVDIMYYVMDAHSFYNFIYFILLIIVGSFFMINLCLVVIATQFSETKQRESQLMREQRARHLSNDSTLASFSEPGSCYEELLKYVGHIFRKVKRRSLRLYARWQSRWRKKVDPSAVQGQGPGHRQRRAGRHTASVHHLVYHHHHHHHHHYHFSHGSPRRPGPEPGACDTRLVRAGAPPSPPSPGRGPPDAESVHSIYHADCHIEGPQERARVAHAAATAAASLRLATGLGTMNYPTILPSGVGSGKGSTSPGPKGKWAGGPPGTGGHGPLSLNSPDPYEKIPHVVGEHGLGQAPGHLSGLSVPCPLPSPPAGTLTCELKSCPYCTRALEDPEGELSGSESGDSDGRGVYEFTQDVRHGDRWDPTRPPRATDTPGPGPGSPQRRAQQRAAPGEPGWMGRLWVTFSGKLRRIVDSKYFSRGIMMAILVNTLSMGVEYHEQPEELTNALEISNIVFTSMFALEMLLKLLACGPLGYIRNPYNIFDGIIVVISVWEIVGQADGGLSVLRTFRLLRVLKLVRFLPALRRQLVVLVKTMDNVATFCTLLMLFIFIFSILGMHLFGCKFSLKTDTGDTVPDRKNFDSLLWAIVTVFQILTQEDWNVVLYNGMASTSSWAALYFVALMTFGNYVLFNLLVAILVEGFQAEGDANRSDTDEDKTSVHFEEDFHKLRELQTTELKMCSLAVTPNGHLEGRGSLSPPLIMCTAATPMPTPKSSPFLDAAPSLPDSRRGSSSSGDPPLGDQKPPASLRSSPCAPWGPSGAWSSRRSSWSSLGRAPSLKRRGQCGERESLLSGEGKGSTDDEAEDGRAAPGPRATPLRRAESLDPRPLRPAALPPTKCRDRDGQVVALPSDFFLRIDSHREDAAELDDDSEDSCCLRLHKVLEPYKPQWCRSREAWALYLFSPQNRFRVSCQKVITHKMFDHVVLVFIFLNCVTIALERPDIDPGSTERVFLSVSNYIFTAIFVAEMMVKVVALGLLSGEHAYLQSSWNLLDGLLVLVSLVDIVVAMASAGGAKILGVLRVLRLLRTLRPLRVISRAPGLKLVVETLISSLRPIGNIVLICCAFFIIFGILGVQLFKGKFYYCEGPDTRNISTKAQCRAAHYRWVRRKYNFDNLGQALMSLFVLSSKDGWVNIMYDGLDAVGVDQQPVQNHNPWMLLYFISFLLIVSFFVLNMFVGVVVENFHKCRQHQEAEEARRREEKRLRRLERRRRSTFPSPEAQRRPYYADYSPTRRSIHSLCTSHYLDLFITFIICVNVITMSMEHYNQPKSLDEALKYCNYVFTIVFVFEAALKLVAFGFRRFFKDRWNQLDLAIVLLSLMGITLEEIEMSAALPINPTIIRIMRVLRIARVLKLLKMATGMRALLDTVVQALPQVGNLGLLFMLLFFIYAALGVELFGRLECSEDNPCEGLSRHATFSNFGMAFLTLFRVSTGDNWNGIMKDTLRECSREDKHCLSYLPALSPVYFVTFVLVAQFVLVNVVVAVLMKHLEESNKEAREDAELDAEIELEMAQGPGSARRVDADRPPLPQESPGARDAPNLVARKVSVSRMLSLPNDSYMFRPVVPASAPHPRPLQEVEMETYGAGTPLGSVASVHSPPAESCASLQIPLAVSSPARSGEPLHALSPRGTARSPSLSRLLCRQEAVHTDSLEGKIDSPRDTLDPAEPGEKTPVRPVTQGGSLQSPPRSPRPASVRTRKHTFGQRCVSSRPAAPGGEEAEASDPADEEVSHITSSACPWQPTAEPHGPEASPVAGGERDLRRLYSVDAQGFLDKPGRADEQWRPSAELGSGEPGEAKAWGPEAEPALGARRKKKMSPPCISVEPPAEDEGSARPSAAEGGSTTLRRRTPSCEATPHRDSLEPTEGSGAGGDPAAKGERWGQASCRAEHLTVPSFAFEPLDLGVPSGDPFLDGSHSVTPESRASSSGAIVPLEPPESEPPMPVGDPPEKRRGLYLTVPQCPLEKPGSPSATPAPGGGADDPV
Method: as §2, §3, §4

[2] = synthetic ω-Avsp1a, 10, 5, 1, and 0.1 μM, Hill equation fit, HEK-293

Compound | clinical effectiveness as anti-epileptic (patients) | CaV3 subtype specificity (CaV3) | inhibition at 4.1 µM (CaV3.3; HEK293, pH 7.4, native ω-Avsp1a, 4.1 μM, HEK-293, whole-cell, -90 to -20 mV, room temperature (21–24 °C), pH 7.4, 5 mM CaCl2, n = 3, read-out: current inhibition) [%] | inhibition at 10 µM (CaV3.3; HEK293, synthetic ω-Avsp1a, 10 μM, HEK-293, whole-cell, -90 to -20 mV, n = 9, read-out: current inhibition) [%] | IC50 (CaV3.3; [2]) [µM] | solubility [1] | inhibition at 4.1 µM (CaV3.1; HEK293, pH 7.4, native ω-Avsp1a, 4.1 μM, HEK-293, whole-cell, -90 to -30 mV, room temperature (21–24 °C), pH 7.4, 5 mM CaCl2, n = 5, read-out: current inhibition) [%] | inhibition at 10 µM (CaV3.1; HEK293, synthetic ω-Avsp1a, 10 μM, HEK-293, whole-cell, -90 to -30 mV, n = 9, read-out: current inhibition) [%] | IC50 (CaV3.1; [2]) [µM] | IC50 (CaV3.2) [µM] | inhibition at 4.1 µM (CaV3.2; HEK293, pH 7.4, native ω-Avsp1a, 4.1 μM, HEK-293, whole-cell, -90 to -30 mV, room temperature (21–24 °C), pH 7.4, 5 mM CaCl2, n = 5, p < 0.001 vs. Cav3.1 and Cav3.3, read-out: current inhibition) [%] | inhibition at 25 µM (CaV3.2; HEK293, synthetic ω-Avsp1a, 25 μM (section 3.6), read-out: current inhibition) [%]
CCC1(C)CC(=O)NC1=O (centres unmarked) [ethosuximide] | not effective in all patients | not subtype-specific | – | – | – | – | – | – | – | – | – | –
NS(=O)(=O)Cc1noc2ccccc12 [zonisamide] | not effective in all patients | not subtype-specific | – | – | – | – | – | – | – | – | – | –
CC(C)C[C@@H]1NC(=O)[C@H](Cc2ccccc2)NC(=O)[C@H](CCCCN)NC(=O)[C@H](Cc2c[nH]cn2)NC(=O)[C@@H](NC(=O)[C@H](CC(=O)O)NC(=O)CN)CSSC[C@@H]2NC(=O)[C@@H]3CSSC[C@@H](C(=O)N[C@H](C(=O)N[C@@H](Cc4c[nH]c5ccccc45)C(=O)N[C@@H](CC(=O)O)C(=O)N[C@@H](Cc4c[nH]c5ccccc45)C(=O)N[C@H](C(=O)N[C@H](C(N)=O)C(C)C)[C@@H](C)O)C(C)C)NC(=O)[C@H](Cc4c[nH]c5ccccc45)NC(=O)CNC(=O)[C@H](Cc4c[nH]cn4)NC(=O)[C@H](CCCCN)NC(=O)[C@H](CCCNC(=N)N)NC(=O)[C@H](CO)NC(=O)[C@H](CSSC[C@H](NC(=O)[C@H](Cc4c[nH]c5ccccc45)NC(=O)CNC1=O)C(=O)N[C@@H](CCCNC(=N)N)C(=O)NCC(=O)N[C@@H](CCC(=O)O)C(=O)N1CCC[C@H]1C(=O)N[C@@H](CC(=O)O)C(=O)N1CCC[C@H]1C(=O)N3)NC(=O)[C@H](CO)NC(=O)[C@H](CC(C)C)NC(=O)[C@H](Cc1c[nH]cn1)NC(=O)[C@H](CCC(=O)O)NC2=O [ω-Avsp1a, ω-theraphotoxin-Avsp1a] (H-GDCHKFLGWCRGEPDPCCEHLSCSRKHGWCVWDWTV-NH2; disulfide 3-18, 10-23, 17-30) | – | – | 90 | 90 | 4.32 ± 1.21 | limited solubility | 90 | 90 | 5.06 ± 0.16 | > 25 | 25 | 31
